Tests used:
Assay type in all cases: in vivo
[1] = system: Echinocloa crus-galli (ECHCG); assay: greenhouse post-emergence herbicidal test; conditions: scale from 0 to 100
Source text: (§1) The culture containers used were plastic flowerpots containing loamy sand with approximately 3.0% of humus as the substrate. The seeds of the test plants were sown separately for each species.
(§2) For the pre-emergence treatment, the active ingredients, which had been suspended or emulsified in water, were applied directly after sowing by means of finely distributing nozzles. The containers were irrigated gently to promote germination and growth and subsequently covered with transparent plastic hoods until the test plants had rooted. This cover caused uniform germination of the test plants, unless this had been impaired by the active ingredients. For the post-emergence treatment, the test plants were first grown to a height of 3 to 15 cm, depending on the plant habit, and only then treated with the active ingredients which had been suspended or emulsified in water. For this purpose, the test plants were either shown directly and grown in the same containers, or they were first grown separately as seedlings and transplanted into the test containers a few days prior to treatment.
(§3) Depending on the species, the test plants were kept at 10-25° C. or 20-35° C., respectively. The test period extended over 2 to 4 weeks. During this time, the test plants were tended, and their response to the individual treatments was evaluated.
(§4) Evaluation was carried out using a scale from 0 to 100. 100 means no emergence of the test plants, or complete destruction of at least the aerial moieties, and 0 means no damage, or normal course of growth. A good herbicidal activity is given at values of 70 to <90 and a very good herbicidal activity is given at values of 90 to 100.
(§5) The test plants used in the greenhouse experiments were of the following species: […]

[2] = system: Fallopia convolvulus (POLCO); assay: greenhouse post-emergence herbicidal test; conditions: 0.32 kg/ha, scale from 0 to 100
Source text: as §1, §2, §3, §4, §5

Setaria viridis (SETVI) [3] = assay: greenhouse post-emergence herbicidal test; conditions: scale from 0 to 100
Source text: as §1, §2, §3, §4, §5

[4] = system: Alopercurus myosuroides (ALOMY); assay: greenhouse pre-emergence herbicidal test; conditions: scale from 0 to 100
Source text: as §1, §2, §3, §4, §5

[5] = system: Lolium multiflorum (LOLMU); assay: greenhouse pre-emergence herbicidal test; conditions: scale from 0 to 100
Source text: as §1, §2, §3, §4, §5

Setaria viridis (SETVI) [6] = assay: greenhouse pre-emergence herbicidal test; conditions: 0.250 kg/ha, scale from 0 to 100
Source text: as §1, §2, §3, §4, §5

[7] = system: Abutilon theophrasti (ABUTH); assay: greenhouse post-emergence herbicidal test; conditions: 1.000 kg/ha, scale from 0 to 100
Source text: as §1, §2, §3, §4, §5

Avena fatua (AVEFA) = assay: greenhouse post-emergence herbicidal test; conditions: for pest or weed control at 250 g/ha: 0.250 kg/ha; for pest or weed control at 500 g/ha: 0.500 kg/ha
Source text: as §1, §2, §3, §4, §5

[8] = system: Apera spica-venti (APESV); assay: greenhouse pre-emergence herbicidal test; conditions: scale from 0 to 100, read-out: herbicidal activity against APESV; for pest or weed control at 250 g/ha: 0.250 kg/ha; for pest or weed control at 500 g/ha: 0.500 kg/ha
Source text: as §1, §2, §3, §4, §5

[9] = system: Abutilon theophrasti (ABUTH); assay: greenhouse pre-emergence herbicidal test; conditions: 0.500 kg/ha, scale from 0 to 100
Source text: as §1, §2, §3, §4, §5

[10] = system: Echinocloa crus-galli (ECHCG); assay: greenhouse pre-emergence herbicidal test; conditions: 0.500 kg/ha, scale from 0 to 100
Source text: as §1, §2, §3, §4, §5

Setaria faberi (SETFA) = assay: greenhouse pre-emergence herbicidal test; conditions: scale from 0 to 100
Source text: as §1, §2, §3, §4, §5

[11] = system: Alopercurus myosuroides (ALOMY); assay: greenhouse post-emergence herbicidal test; conditions: 0.125 kg/ha, scale from 0 to 100
Source text: as §1, §2, §3, §4, §5

[12] = system: Lolium multiflorum (LOLMU); assay: greenhouse post-emergence herbicidal test; conditions: 0.125 kg/ha, scale from 0 to 100
Source text: as §1, §2, §3, §4, §5

[13] = system: Amaranthus retroflexus (AMARE); assay: greenhouse post-emergence herbicidal test; conditions: 0.125 kg/ha, scale from 0 to 100
Source text: as §1, §2, §3, §4, §5

[14] = Avena fatua, scale from 0 to 100, read-out: herbicidal activity against AVEFA

CC(C)OC(=O)C1C=CC(NC(=O)C2(C(=O)Nc3cc(F)cc(F)c3)CCO2)C1 (mixture of isomers) [I.4]
herbicidal activity against ECHCG ([1]; 0.32 kg/ha): very good (a very good herbicidal activity is given at values of 90 to 100) | herbicidal activity against POLCO [2]: very good (a very good herbicidal activity is given at values of 90 to 100) | herbicidal activity against SETVI (Setaria viridis (SETVI) [3]; 0.32 kg/ha): very good (a very good herbicidal activity is given at values of 90 to 100)

COC(=O)CC(C)NC(=O)C1(C(=O)Nc2cc(Cl)cc(Cl)c2)C=CCO1 (mixture of isomers) [I.25]
herbicidal activity against ALOMY ([4]; 0.0625 kg/ha): good (A good herbicidal activity is given at values of 70 to <90) | herbicidal activity against LOLMU ([5]; 0.0625 kg/ha): very good (a very good herbicidal activity is given at values of 90 to 100)

O=C([O-])C1C=CC(NC(=O)C2(C(=O)Nc3cc(Cl)cc(Cl)c3)C=CCO2)C1.[Na+] (mixture of isomers) [I.201]
herbicidal activity against SETVI (Setaria viridis (SETVI) [6]): good (A good herbicidal activity is given at values of 70 to <90)

COC(=O)C1C=CC(NC(=O)C2(C(=O)Nc3cc(Cl)cc(Cl)c3)OC2(C)C)C1 (mixture of isomers) [I.220]
herbicidal activity against ECHCG ([1]; 0.500 kg/ha): good (A good herbicidal activity is given at values of 70 to <90)

Cn1nnnc1NC(=O)C1(C(=O)Nc2cc(F)c(F)c(F)c2)CCO1 (racemic) [I.5]
herbicidal activity against LOLMU ([5]; 0.250 kg/ha): very good (a very good herbicidal activity is given at values of 90 to 100)

COC(=O)CC(C)NC(=O)C1(C(=O)Nc2cc(Cl)cc(Cl)c2)OCCO1 (racemic) [I.19]
herbicidal activity against ABUTH [7]: good (A good herbicidal activity is given at values of 70 to <90)

COC(=O)[C@@H]1C=C[C@H](NC(=O)C2(C(=O)Nc3cc(F)cc(F)c3)CCO2)C1 (stereo partly drawn) [Compound I1, methyl (1S,4R)-4-[[2-[(3,5-difluorophenyl)carbamoyl]oxetane-2-carbonyl]amino]cyclopent-2-ene-1-carboxylate]
pest or weed control at 250 g/ha (Avena fatua (AVEFA); [14]): 90 to 100% | pest or weed control at 250 g/ha [8]: 90 to 100%

COC(=O)C[C@H](C)NC(=O)C1(C(=O)Nc2cc(F)cc(F)c2)CCO1 (stereo partly drawn) [Compound I2, methyl (3S)-3-[[2-[(3,5-difluorophenyl)carbamoyl]oxetane-2-carbonyl]amino]butanoate]
pest or weed control at 500 g/ha [8]: 90 to 100%

COC(=O)[C@@H]1C=C[C@H](NC(=O)C2(C(=O)Nc3cc(Cl)cc(Cl)c3)CCO2)C1 (stereo partly drawn) [Compound I6, methyl (1S,4R)-4-[[2-[(3,5-dichlorophenyl)carbamoyl]oxetane-2-carbonyl]amino]cyclopent-2-ene-1-carboxylate]
herbicidal activity against ABUTH [9]: very good (a very good herbicidal activity is given at values of 90 to 100) | pest or weed control at 500 g/ha [8]: 90 to 100%

COC(=O)C[C@H](C)NC(=O)C1(C(=O)Nc2cc(Cl)cc(Cl)c2)CCO1 (stereo partly drawn) [Compound I7, methyl (3S)-3-[[2-[(3,5-dichlorophenyl)carbamoyl]oxetane-2-carbonyl]amino]butanoate]
pest or weed control at 500 g/ha (Avena fatua (AVEFA); [14]): 90 to 100% | pest or weed control at 500 g/ha [8]: 90 to 100%

COC(=O)[C@@H]1CC[C@H](NC(=O)C2(C(=O)Nc3cc(Cl)cc(Cl)c3)CCCO2)C1 (stereo partly drawn) [Compound I15]
herbicidal activity against ECHCG [10]: good (A good herbicidal activity is given at values of 70 to <90) | herbicidal activity against SETFA (Setaria faberi (SETFA); 0.500 kg/ha): good (A good herbicidal activity is given at values of 70 to <90)

COC(=O)[C@@H]1C=C[C@H](NC(=O)C2(C(=O)Nc3cc(Cl)cc(Cl)c3)CCCO2)C1 (stereo partly drawn) [Compound I16, methyl (1S,4R)-4-[[2-[(3,5-dichlorophenyl)carbamoyl]tetrahydrofuran-2-carbonyl]amino]cyclopent-2-ene-1-carboxylate]
pest or weed control at 500 g/ha [8]: 90 to 100%

COC(=O)CCCNC(=O)C1(C(=O)Nc2cc(Cl)cc(Cl)c2)CCCO1 (stereo not drawn) [Compound I18, methyl 4-[[2-[(3,5-dichlorophenyl)carbamoyl]tetrahydrofuran-2-carbonyl]amino]butanoate]
pest or weed control at 500 g/ha (Avena fatua (AVEFA); [14]): 70 to 90% | pest or weed control at 500 g/ha [8]: 90 to 100%

COC(=O)[C@@H]1C=C[C@H](NC(=O)C2(C(=O)Nc3cc(Cl)cc(Cl)c3)C=CCO2)C1 (stereo partly drawn) [Compound I24, methyl (1S,4R)-4-[[5-[(3,5-dichlorophenyl)carbamoyl]-2H-furan-5-carbonyl]amino]cyclopent-2-ene-1-carboxylate]
pest or weed control at 250 g/ha (Avena fatua (AVEFA); [14]): 90 to 100% | herbicidal activity against ALOMY ([4]; 0.250 kg/ha): very good (a very good herbicidal activity is given at values of 90 to 100)

COC(=O)[C@@H]1C=C[C@H](NC(=O)C2(C(=O)Nc3cc(Cl)cc(Cl)c3)C=CCO2)C1 (stereo partly drawn) [Compound I183, methyl (1S,4R)-4-[[5-[(3,5-dichlorophenyl)carbamoyl]-2H-furan-5-carbonyl]amino]cyclopent-2-ene-1-carboxylate]
pest or weed control at 125 g/ha ([8]; 0.125 kg/ha): 70 to 90%

COC(=O)[C@@H]1C=C[C@H](NC(=O)C2(C(=O)Nc3cc(Cl)cc(Cl)c3)C=CCO2)C1 (stereo partly drawn) [Compound I184, methyl (1S,4R)-4-[[5-[(3,5-dichlorophenyl)carbamoyl]-2H-furan-5-carbonyl]amino]cyclopent-2-ene-1-carboxylate]
pest or weed control at 250 g/ha [8]: 90 to 100%

COC(=O)C[C@H](C)NC(=O)C1(C(=O)Nc2cc(Cl)cc(Cl)c2)CCCO1 (stereo partly drawn) [I.17, methyl (3S)-3-[[2-[(3,5-dichlorophenyl)carbamoyl]tetrahydrofuran-2-carbonyl]amino]butanoate]
pest or weed control at 500 g/ha (Avena fatua (AVEFA); [14]): 70 to 90% | pest or weed control at 500 g/ha [8]: 90 to 100%

COC(=O)[C@@H]1C=C[C@H](NC(=O)C2(C(=O)Nc3cc(Cl)cc(Cl)c3)OCCS2)C1 (stereo partly drawn) [I.20, methyl (1S,4R)-4-[[2-[(3,5-dichlorophenyl)carbamoyl]-1,3-oxathiolane-2-carbonyl]amino]cyclopent-2-ene-1-carboxylate]
pest or weed control at 250 g/ha (Avena fatua (AVEFA); [14]): 90 to 100% | pest or weed control at 250 g/ha [8]: 70 to 90%

COC(=O)CC[C@H](C)NC(=O)C1(C(=O)Nc2cc(Cl)cc(Cl)c2)OCCS1 (stereo partly drawn) [I.21, methyl (4S)-4-[[2-[(3,5-dichlorophenyl)carbamoyl]-1,3-oxathiolane-2-carbonyl]amino]pentanoate]
pest or weed control at 250 g/ha (Avena fatua (AVEFA); [14]): 90 to 100% | pest or weed control at 250 g/ha [8]: 90 to 100%

COC(=O)C[C@H](C)NC(=O)C1(C(=O)Nc2cc(Cl)cc(Cl)c2)COCO1 (stereo partly drawn) [I.22]
herbicidal activity against ALOMY [11]: very good (a very good herbicidal activity is given at values of 90 to 100) | pest or weed control at 125 g/ha (Avena fatua (AVEFA); Avena fatua, 0.125 kg/ha, scale from 0 to 100, read-out: herbicidal activity against AVEFA): 90 to 100% | herbicidal activity against LOLMU [12]: very good (a very good herbicidal activity is given at values of 90 to 100)

COC(=O)CCCNC(=O)C1(C(=O)Nc2cc(Cl)cc(Cl)c2)COCO1 (stereo not drawn) [I.23, methyl 4-[[4-[(3,5-dichlorophenyl)carbamoyl]-1,3-dioxolane-4-carbonyl]amino]butanoate]
pest or weed control at 500 g/ha (Avena fatua (AVEFA); [14]): 70 to 90%

C=C1CCOC1(C(=O)Nc1cc(Cl)cc(Cl)c1)C(=O)NC(C)CC(=O)OC (stereo not drawn) [I.122]
herbicidal activity against AMARE [13]: good (A good herbicidal activity is given at values of 70 to <90)

O=C(O)CCCNC(=O)C1(C(=O)Nc2cc(F)cc(F)c2)CCO1 (stereo not drawn) [I.126]
herbicidal activity against SETVI (Setaria viridis (SETVI) [3]; 0.0625 kg/ha): good (A good herbicidal activity is given at values of 70 to <90)

CS(=O)(=O)CCOC(=O)CCCNC(=O)C1(C(=O)Nc2cc(F)cc(F)c2)CCO1 (stereo not drawn) [I.130]
herbicidal activity against AVEFA (Avena fatua (AVEFA); 0.0625 kg/ha, scale from 0 to 100): good (A good herbicidal activity is given at values of 70 to <90)

CC(C)OC(=O)C1C=CC(NC(=O)C2(C(=O)Nc3cc(F)c(F)c(F)c3)CCO2)C1 (stereo not drawn) [I.133]
herbicidal activity against ALOMY ([4]; 0.13128 kg/ha): very good (a very good herbicidal activity is given at values of 90 to 100) | herbicidal activity against LOLMU ([5]; 0.13128 kg/ha): very good (a very good herbicidal activity is given at values of 90 to 100) | herbicidal activity against SETFA (Setaria faberi (SETFA); 0.13128 kg/ha): very good (a very good herbicidal activity is given at values of 90 to 100)

CC(C)OC(=O)C1C=CC(NC(=O)C2(C(=O)Nc3cccc(OC(F)(F)F)c3)CCO2)C1 (stereo not drawn) [I.134]
herbicidal activity against ECHCG ([1]; 0.0625 kg/ha): very good (a very good herbicidal activity is given at values of 90 to 100)

From patent publication US20230406833A1, “HERBICIDAL MALONAMIDES” (BASF SE, priority 2020, published 2023)
